{"source": "ChEMBL document CHEMBL3792297", "about": "“Studies on phenothiazines: New microtubule-interacting compounds with phenothiazine A-ring as potent antineoplastic agents” (Bioorg Med Chem, 2016)", "type_in_all_cases": "functional", "key": {"[1]": {"test": "Growth inhibition of human LOXIMVI cells after 48 hrs by SRB assay", "conditions": "LOX IMVI"}, "[2]": {"test": "Growth inhibition of human PC3 cells after 48 hrs by SRB assay", "conditions": "PC-3, 48 h"}, "[3]": {"test": "Growth inhibition of human IGROV1 cells at 10 uM after 48 hrs by SRB assay relative to control", "conditions": "IGROV-1, 48 h, read-out: GI"}, "[4]": {"test": "Growth inhibition of human DU145 cells after 48 hrs by SRB assay", "conditions": "DU-145, 48 h"}, "[5]": {"test": "Growth inhibition of human UACC257 cells at 10 uM after 48 hrs by SRB assay relative to control", "conditions": "UACC-257, 48 h, read-out: GI"}, "[6]": {"test": "Growth inhibition of human OVCAR5 cells at 10 uM after 48 hrs by SRB assay relative to control", "conditions": "OVCAR-5, 48 h, read-out: GI"}, "[7]": {"test": "Growth inhibition of human HL-60(TB) cells after 48 hrs by SRB assay", "conditions": "HL-60, 48 h"}, "[8]": {"test_system": "NCI-H322M", "test": "Growth inhibition of human NCI-H322M cells at 10 uM after 48 hrs by SRB assay relative to control", "conditions": "read-out: GI"}, "[9]": {"test": "Growth inhibition of human IGROV1 cells after 48 hrs by SRB assay", "conditions": "IGROV-1, 48 h"}, "[10]": {"test_system": "MDA-MB-231", "test": "Growth inhibition of human MDA-MB-231 cells at 10 uM after 48 hrs by SRB assay relative to control", "conditions": "MDA-MB-231, 48 h, read-out: GI"}, "[11]": {"test_system": "NCI-H460", "test": "Growth inhibition of human NCI-H460 cells after 48 hrs by SRB assay", "conditions": "NCI-H460, 48 h"}, "[12]": {"test_system": "ACHN", "test": "Growth inhibition of human ACHN cells after 48 hrs by SRB assay"}, "[13]": {"test": "Growth inhibition of human Hs 578T cells after 48 hrs by SRB assay"}, "[14]": {"test_system": "NCI-H522", "test": "Growth inhibition of human NCI-H522 cells at 10 uM after 48 hrs by SRB assay relative to control", "conditions": "NCI-H522, 48 h, read-out: GI"}, "[15]": {"test": "Growth inhibition of human OVCAR4 cells after 48 hrs by SRB assay", "conditions": "OVCAR-4, 48 h"}, "[16]": {"test": "Growth inhibition of human NCI-ADR-RES cells at 10 uM after 48 hrs by SRB assay relative to control", "conditions": "read-out: GI"}, "[17]": {"test": "Growth inhibition of human HOP92 cells after 48 hrs by SRB assay", "conditions": "HOP-92, 48 h"}, "[18]": {"test": "Growth inhibition of human OVCAR4 cells at 10 uM after 48 hrs by SRB assay relative to control", "conditions": "OVCAR-4, 48 h, read-out: GI"}, "[19]": {"test": "Growth inhibition of human SKOV3 cells after 48 hrs by SRB assay", "conditions": "SK-OV-3, 48 h"}, "[20]": {"test": "Growth inhibition of human HCC2998 cells at 10 uM after 48 hrs by SRB assay relative to control", "conditions": "HCC 2998, 48 h, read-out: GI"}, "[21]": {"test_system": "NCI-H460", "test": "Growth inhibition of human NCI-H460 cells at 10 uM after 48 hrs by SRB assay relative to control", "conditions": "NCI-H460, 48 h, read-out: GI"}, "[22]": {"test": "Growth inhibition of human PC3 cells at 10 uM after 48 hrs by SRB assay relative to control", "conditions": "PC-3, 48 h, read-out: GI"}, "[23]": {"test_system": "CCRF-CEM", "test": "Growth inhibition of human CCRF-CEM cells after 48 hrs by SRB assay"}, "[24]": {"test": "Growth inhibition of human SF539 cells after 48 hrs by SRB assay", "conditions": "SF-539, 48 h"}, "[25]": {"test": "Growth inhibition of human OVCAR5 cells after 48 hrs by SRB assay", "conditions": "OVCAR-5, 48 h"}, "[26]": {"test_system": "A549", "test": "Growth inhibition of human A549 cells at 10 uM after 48 hrs by SRB assay relative to control", "conditions": "A549, 48 h, read-out: GI"}, "[27]": {"test": "Growth inhibition of human SNB19 cells at 10 uM after 48 hrs by SRB assay relative to control", "conditions": "SNB-19, 48 h, read-out: GI"}, "[28]": {"test_system": "NCI-H23", "test": "Growth inhibition of human NCI-H23 cells after 48 hrs by SRB assay", "conditions": "NCI-H23, 48 h"}, "[29]": {"test": "Growth inhibition of human SF295 cells at 10 uM after 48 hrs by SRB assay relative to control", "conditions": "SF-295, 48 h, read-out: GI"}, "[30]": {"test_system": "SK-MEL-28", "test": "Growth inhibition of human SK-MEL-28 cells after 48 hrs by SRB assay", "conditions": "SK-MEL-28, 48 h"}, "[31]": {"test_system": "MCF7", "test": "Growth inhibition of human MCF7 cells at 10 uM after 48 hrs by SRB assay relative to control", "conditions": "MCF7, 48 h, read-out: GI"}, "[32]": {"test": "Growth inhibition of human HCT15 cells after 48 hrs by SRB assay", "conditions": "HCT-15, 48 h"}, "[33]": {"test": "Growth inhibition of human DU145 cells at 10 uM after 48 hrs by SRB assay relative to control", "conditions": "DU-145, 48 h, read-out: GI"}, "[34]": {"test_system": "ACHN", "test": "Growth inhibition of human ACHN cells at 10 uM after 48 hrs by SRB assay relative to control", "conditions": "read-out: GI"}, "[35]": {"test_system": "M14", "test": "Growth inhibition of human M14 cells after 48 hrs by SRB assay", "conditions": "M14, 48 h"}, "[36]": {"test": "Growth inhibition of human COLO205 cells at 10 uM after 48 hrs by SRB assay relative to control", "conditions": "COLO 205, 48 h, read-out: GI"}, "[37]": {"test_system": "KM12", "test": "Growth inhibition of human KM12 cells after 48 hrs by SRB assay", "conditions": "KM12, 48 h"}, "[38]": {"test": "Growth inhibition of human Caki1 cells after 48 hrs by SRB assay", "conditions": "CAKI-1, 48 h"}, "[39]": {"test": "Growth inhibition of human COLO205 cells after 48 hrs by SRB assay", "conditions": "COLO 205, 48 h"}, "[40]": {"test_system": "T47D", "test": "Growth inhibition of human T47D cells at 10 uM after 48 hrs by SRB assay relative to control", "conditions": "read-out: GI"}, "[41]": {"test": "Growth inhibition of human UO31 cells after 48 hrs by SRB assay", "conditions": "UO-31, 48 h"}, "[42]": {"test": "Growth inhibition of human LOXIMVI cells at 10 uM after 48 hrs by SRB assay relative to control", "conditions": "LOX IMVI, read-out: GI"}, "[43]": {"test": "Growth inhibition of human SF539 cells at 10 uM after 48 hrs by SRB assay relative to control", "conditions": "SF-539, 48 h, read-out: GI"}, "[44]": {"test_system": "SK-MEL-2", "test": "Growth inhibition of human SK-MEL-2 cells after 48 hrs by SRB assay", "conditions": "SK-MEL-2, 48 h"}, "[45]": {"test": "Growth inhibition of human SNB75 cells at 10 uM after 48 hrs by SRB assay relative to control", "conditions": "SNB-75, 48 h, read-out: GI"}, "[46]": {"test": "Growth inhibition of human OVCAR3 cells after 48 hrs by SRB assay", "conditions": "OVCAR-3, 48 h"}}, "data": [{"smiles": "COc1ccc(C(=O)N2c3ccccc3Sc3ccccc32)c(C(F)(F)F)c1", "values": [{"measurement": "GI50", "setting": "[1]", "value": 516, "unit": "nM"}, {"measurement": "GI50", "setting": "[2]", "value": 426, "unit": "nM"}, {"measurement": "inhibition of growth at 10 µM", "setting": "[3]", "value": 62, "unit": "%"}, {"measurement": "GI50", "setting": "[4]", "value": 433, "unit": "nM"}, {"measurement": "inhibition of growth at 10 µM", "setting": "[5]", "value": 38, "unit": "%"}, {"measurement": "inhibition of growth at 10 µM", "setting": "[6]", "value": 55, "unit": "%"}, {"measurement": "GI50", "setting": "[7]", "value": 252, "unit": "nM"}, {"measurement": "inhibition of growth at 10 µM", "setting": "[8]", "value": 47, "unit": "%"}, {"measurement": "GI50", "setting": "[9]", "value": 2200, "unit": "nM"}, {"measurement": "inhibition of growth at 10 µM", "setting": "[10]", "value": 76, "unit": "%"}, {"measurement": "GI50", "setting": "[11]", "value": 383, "unit": "nM"}, {"measurement": "GI50", "setting": "[12]", "value": 1330, "unit": "nM"}, {"measurement": "GI50", "setting": "[13]", "value": 472, "unit": "nM"}, {"measurement": "inhibition of growth at 10 µM", "setting": "[14]", "value": 98, "unit": "%"}, {"measurement": "GI50", "setting": "[15]", "value": 1980, "unit": "nM"}, {"measurement": "inhibition of growth at 10 µM", "setting": "[16]", "value": 97, "unit": "%"}, {"measurement": "GI50", "setting": "[17]", "value": 152, "unit": "nM"}, {"measurement": "inhibition of growth at 10 µM", "setting": "[18]", "value": 53, "unit": "%"}, {"measurement": "GI50", "setting": "[19]", "value": 794, "unit": "nM"}, {"measurement": "inhibition of growth at 10 µM", "setting": "[20]", "value": 74, "unit": "%"}, {"measurement": "inhibition of growth at 10 µM", "setting": "[21]", "value": 90, "unit": "%"}, {"measurement": "inhibition of growth at 10 µM", "setting": "[22]", "value": 85, "unit": "%"}, {"measurement": "GI50", "setting": "[23]", "value": 88, "unit": "nM"}, {"measurement": "GI50", "setting": "[24]", "value": 270, "unit": "nM"}, {"measurement": "GI50", "setting": "[25]", "value": 1610, "unit": "nM"}, {"measurement": "inhibition of growth at 10 µM", "setting": "[26]", "value": 75, "unit": "%"}, {"measurement": "inhibition of growth at 10 µM", "setting": "[27]", "value": 69, "unit": "%"}, {"measurement": "GI50", "setting": "[28]", "value": 578, "unit": "nM"}, {"measurement": "inhibition of growth at 10 µM", "setting": "[29]", "value": 95, "unit": "%"}, {"measurement": "GI50", "setting": "[30]", "value": 9170, "unit": "nM"}, {"measurement": "inhibition of growth at 10 µM", "setting": "[31]", "value": 83, "unit": "%"}, {"measurement": "GI50", "setting": "[32]", "value": 405, "unit": "nM"}, {"measurement": "inhibition of growth at 10 µM", "setting": "[33]", "value": 86, "unit": "%"}, {"measurement": "inhibition of growth at 10 µM", "setting": "[34]", "value": 68, "unit": "%"}, {"measurement": "GI50", "setting": "[35]", "value": 343, "unit": "nM"}, {"measurement": "inhibition of growth at 10 µM", "setting": "[36]", "value": 100, "unit": "%"}, {"measurement": "GI50", "setting": "[37]", "value": 413, "unit": "nM"}, {"measurement": "GI50", "setting": "[38]", "value": 692, "unit": "nM"}, {"measurement": "GI50", "setting": "[39]", "value": 319, "unit": "nM"}, {"measurement": "inhibition of growth at 10 µM", "setting": "[40]", "value": 48, "unit": "%"}, {"measurement": "GI50", "setting": "[41]", "value": 2620, "unit": "nM"}, {"measurement": "inhibition of growth at 10 µM", "setting": "[42]", "value": 83, "unit": "%"}, {"measurement": "inhibition of growth at 10 µM", "setting": "[43]", "value": 100, "unit": "%"}, {"measurement": "GI50", "setting": "[44]", "value": 677, "unit": "nM"}, {"measurement": "inhibition of growth at 10 µM", "setting": "[45]", "value": 71, "unit": "%"}, {"measurement": "GI50", "setting": "[46]", "value": 332, "unit": "nM"}]}]}
